Results published in paper PMC12866179, “Oxidized MIF is an Alzheimer’s disease drug target relaying external risk factors to tau pathology” (Cell Reports Medicine, 2025).

Legend:
[1] = target: T1, D-dopachrome tautomerase (D-DT) (Homo sapiens, UniProt P30046); test: Drug resin affinity chromatography (DRAC), D-DT; type: binding; details: SH-SY5Y-tau-P301S lysates
T1 construct: Lysates derived from SH-SY5Y-tau-P301S control; endogenous in cells; host or cells: SH-SY5Y-tau-P301S control and MIF-ko cell lysates
Experimental: For drug resin affinity chromatography (DRAC), supernatant of cell lysates or brain extracts were supplemented with 1 mM of ribonucleoside triphosphates (ATP, GTP, CTP, UTP; NEB), 10 mM creatine phosphate (Sigma) and 10 μL/mL of a 5 mg/mL stock solution of creatine kinase (Sigma). The samples were then loaded onto 20 μL of compound-coupled resin that were equilibrated with PBB-buffer (plus supplements). After one hour of incubation at 26°C, the beads were washed with PBB (100x bed volume). Bound proteins were then eluted either with 200 μM PAV-645 (pig brain) or 100 μM free compound (human brain samples; cell lysates) in the same buffer used as competitor solution or for stripping 1% SDS or 8M urea (cell lysates) for 1h. All elutions were kept frozen until further analysis.
Figure S3. PAV-17 4 reduces ta u phosphorylation al s o in the abs enc e of HSV-1-infection in a MIF and dose dependent manner. Rel a ted to Figure 3
(A) SH-SY5Y-tau-P301S cel ls could efficiently been infected with HSV-1. The cel ls we re infected with increasing MOIs (0 .0 3 to 3. 0 ) of HSV-1 an d then lysed af t er 6h , 9h , 16 h or 24 h. […]
(E) Expression of MIF wa s no t mo du late d up on infection with HSV-1. […] The di ag ram di splays the quantification of MIF normalized to GAPDH derived from three in de pe nd en t exper iments (n =3). […]

[2] = test system: GSK3β; test: GSK3β phosphorylation (Ser9) in SH-SY5Y-tau-P301S cells, immunoblot; type: cell-based, human; details: dose-dependent and MIF-dependent
Experimental: After the protein concentration of cell lysates and homogenates had been determined using the DC Protein Assay Kit (Bio-Rad), 20 μg of each sample were dissolved in NuPAGE LDS Sample buffer (including 2% β-mercaptoethanol), boiled at 100°C for 5 min and then separated on NuPAGE Novex 4–12% Bis-Tris midi gels (Invitrogen) using NuPAGE MES SDS Running buffer (Invitrogen). Proteins were then transferred to a 0.2 μm nitrocellulose membrane (Amersham) in 24 mM Tris/192 mM glycine/20% MeOH at 400 mA for 2h using a tank blot system (Bio-Rad). In order to detect any blotting artifacts, the proteins on the membranes were visualized with Ponceau S (Sigma). The membranes were destained with PBS and then blocked with PBS/5% nonfat milk (Oxoid) for 1h at RT. Incubations with primary antibodies (diluted 1:1,000) in PBS-T were carried out overnight at 4°C. Then the membranes were washed three times with PBS-T for 10 min and afterward incubated with fluorescent secondary antibodies (IR Dye 680 or 800: Li-COR Biosciences.) diluted 1:20,000 in PBS-T for 1h at RT. Following three washing steps with PBS-T for 10 min each, the membranes were scanned using an LI-COR Odyssey CLX. Signal intensities were calculated using the Image Studio Version 2.1 software (LI-COR Biosciences). Blots were reused for staining with additional primary antibodies following the same procedure.

Row | Compound | binding of / interaction with D-DT [1] | phosphorylation of GSK3β at Ser9 [2]
1 | [I-].c1cc2nc3ccc(N4CCCC4)cc3[s+]c2cc1N1CCCC1 [PAV-617, 3,7-Di(pyrrolidine-1-yl)phenothiazine-5-ium iodide] | no bi nd ing of D-DT | 
2 | CCc1cc(N2CCCC2)cc2[s+]c3cc(N4CCCC4)cc(C)c3nc12.[I-] [PAV-174, 3,7-Di(pyrrolidine-1-yl) 1-ethyl-9-methyl-phenothiazin-5-ium iodide] |  | increased
